PubChem BioAssay (NCI)
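GI50 is the concentration that inhibits growth by half. TGI denotes the concentration required for complete inhibition of growth.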

What was measured:
Assay in all cases: NCI-60 cell line screen, 384-well format
NCI-H460 NSCLC = test system: NCI-H460 NSCLC
NCI-H522 lung = test system: NCI-H522 lung
NCI/ADR-RES ovarian = test system: NCI/ADR-RES ovarian
OVCAR-3 ovarian = test system: OVCAR-3 ovarian
OVCAR-4 ovarian = test system: OVCAR-4 ovarian
OVCAR-5 ovarian = test system: OVCAR-5 ovarian
OVCAR-8 ovarian = test system: OVCAR-8 ovarian
RPMI-8226 leukemia = test system: RPMI-8226 leukemia
SF-268 CNS = test system: SF-268 CNS
SF-295 CNS = test system: SF-295 CNS
SF-539 CNS = test system: SF-539 CNS
SK-MEL-28 melanoma = test system: SK-MEL-28 melanoma
SK-MEL-5 melanoma = test system: SK-MEL-5 melanoma
SN12C renal = test system: SN12C renal
SNB-19 CNS = test system: SNB-19 CNS
SNB-75 CNS = test system: SNB-75 CNS
SR leukemia = test system: SR leukemia
SW-620 colon = test system: SW-620 colon
T-47D breast = test system: T-47D breast
TK-10 renal = test system: TK-10 renal
U251 glioblastoma = test system: U251 glioblastoma
UACC-257 melanoma = test system: UACC-257 melanoma
UACC-62 melanoma = test system: UACC-62 melanoma
UO-31 renal = test system: UO-31 renal

Cc1ccc2c(N)c(C(=O)N[C@H]3CCc4cc(N5CC6CCC(C5)N6)ccc4C3)sc2n1
TGI (NCI-H460 NSCLC): 548 nM | GI50 (NCI-H522 lung): 174 nM | TGI (NCI-H522 lung): 487 nM | GI50 (NCI/ADR-RES ovarian): 326 nM | TGI (NCI/ADR-RES ovarian): 1190 nM | GI50 (OVCAR-3 ovarian): 129 nM | TGI (OVCAR-3 ovarian): 513 nM | GI50 (OVCAR-4 ovarian): 127 nM | TGI (OVCAR-4 ovarian): 460 nM | GI50 (OVCAR-5 ovarian): 277 nM | TGI (OVCAR-5 ovarian): 795 nM | GI50 (OVCAR-8 ovarian): 278 nM | TGI (OVCAR-8 ovarian): 1080 nM | GI50 (RPMI-8226 leukemia): 66.4 nM | TGI (RPMI-8226 leukemia): 192 nM | GI50 (SF-268 CNS): 120 nM | TGI (SF-268 CNS): 501 nM | GI50 (SF-295 CNS): 335 nM | TGI (SF-295 CNS): 919 nM | GI50 (SF-539 CNS): 207 nM | TGI (SF-539 CNS): 663 nM | GI50 (SK-MEL-28 melanoma): 269 nM | TGI (SK-MEL-28 melanoma): 813 nM | GI50 (SK-MEL-5 melanoma): 111 nM | TGI (SK-MEL-5 melanoma): 436 nM | GI50 (SN12C renal): 124 nM | TGI (SN12C renal): 647 nM | GI50 (SNB-19 CNS): 293 nM | TGI (SNB-19 CNS): 2140 nM | GI50 (SNB-75 CNS): 219 nM | TGI (SNB-75 CNS): 682 nM | GI50 (SR leukemia): 161 nM | TGI (SR leukemia): 298 nM | GI50 (SW-620 colon): 207 nM | TGI (SW-620 colon): 1070 nM | GI50 (T-47D breast): 269 nM | TGI (T-47D breast): 992 nM | GI50 (TK-10 renal): 253 nM | TGI (TK-10 renal): 757 nM | GI50 (U251 glioblastoma): 270 nM | TGI (U251 glioblastoma): 1030 nM | GI50 (UACC-257 melanoma): 194 nM | TGI (UACC-257 melanoma): 775 nM | GI50 (UACC-62 melanoma): 241 nM | TGI (UACC-62 melanoma): 811 nM | GI50 (UO-31 renal): 349 nM | TGI (UO-31 renal): 1270 nM
